Experimental data taken from patent publication US8895695B2, “Template-fixed beta-hairpin peptidomimetics with CXCR4 antagonizing activity” (priority 2003, dated 2014).
Bridge positions count the residues as written; N and C are the ends. Square brackets hold non-standard residues; d marks the D form. Peptide text beside a SMILES is read from it. Phe(4-F) = N[C@@H](Cc1ccc(F)cc1)C(=O)O; 2Nal = N[C@@H](Cc1ccc2ccccc2c1)C(=O)O; Cit = NC(=O)NCCC[C@H](N)C(=O)O

What was measured:
[1] = system: human red blood cells (hRBC); experiment: Hemolysis; type: cell-based
Method: The peptides were tested for their hemolytic activity against human red blood cells (hRBC). Fresh hRBC were washed three times with phosphate buffered saline (PBS) by centrifugation for 10 min at 2000×g. Peptides at a concentration of 100 μM were incubated with 20% v/v hRBC for 1 hour at 37° C. The final erythrocyte concentration was approximately 0.9×10^9 cells per ml. A value of 0% resp. 100% cell lysis was determined by incubation of the hRBC in the presence of PBS alone and respectively 0.1% Triton X-100 in H2O. The samples were centrifuged and the supernatant was 20-fold diluted in PBS buffer and the optical density (OD) of the sample at […] was measured. The 100% lyses value (OD540H2O) gave an OD540 of approximately 1.3-1.8. Percent hemolysis was calculated as follows: (OD540peptide/OD540H2O)×100%.

[2] = in vitro; conditions: human
[3] = target: CXCR4 (Homo sapiens, UniProt P61073); experiment: Ca2+-assay method 2 (Flexstation, SDF-1 induced calcium mobilization); type: cell-based; set-up: expressed in transfected cells; host or cells: mouse pre-B cell line 300-19; conditions: method 2 (Ex. 54-160), mouse pre-B cell line 300-19 with human CXCR4, 10 nM SDF-1; read-out: IC50 (nM) Ca^2+ assay
Method: 2.2. Ca^2+-Assay: CXCR4-Antagonizing Activity of the Peptides.
The cells were batch loaded with the Calcium 3 Assay kit (Molecular Devices) in assay buffer (Hanks Balanced salt solution, HBSS, 20 mM HEPES, pH 7.4, 0.1% BSA) for 1 h at room temperature and then 200,000 labeled cells were dispensed into black 96 well assays plates (Costar No. 3603). A 20-fold concentrated solution of peptide in assay buffer was added to the cells and the whole plate was centrifuged to settle the cells to the bottom of the wells. Calcium mobilization induced by 10 nM stromal-derived factor-1 (SDF-1) was measured in the Flexstation 384 (excitation, 485 nM; emission, 525 nM) for 90 seconds. A maximal change in fluorescence response above baseline was used to calculate antagonist activity. The data for dose response curves (antagonist concentration versus % maximum response) were fitted to a four parameter logistic equation using SoftmaxPro 4.6 (Molecular Devices), from which IC50% values were calculated.
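For GI50 in this document: MTT reduction read as absorbance at 595 nm, blank-corrected and expressed as percent growth relative to the time-zero cell reading, triplicate wells per concentration.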

Chain of CXCR4 (P61073 whole entry): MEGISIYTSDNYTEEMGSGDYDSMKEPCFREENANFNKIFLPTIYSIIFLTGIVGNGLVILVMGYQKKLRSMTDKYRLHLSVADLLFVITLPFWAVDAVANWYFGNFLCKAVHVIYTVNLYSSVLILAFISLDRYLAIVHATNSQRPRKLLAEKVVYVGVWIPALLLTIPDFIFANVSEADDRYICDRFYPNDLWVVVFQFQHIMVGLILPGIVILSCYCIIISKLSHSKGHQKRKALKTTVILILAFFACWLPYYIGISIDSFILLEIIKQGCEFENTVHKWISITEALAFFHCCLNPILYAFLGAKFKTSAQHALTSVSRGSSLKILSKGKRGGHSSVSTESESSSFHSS

N=C(N)NCCC[C@@H]1NC(=O)[C@@H]2CSSC[C@H](NC(=O)[C@H](Cc3ccc4ccccc4c3)NC(=O)[C@H](CCCNC(=N)N)NC(=O)[C@H](CCCNC(=N)N)NC(=O)[C@H]3CCCN3C(=O)CNC1=O)C(=O)N[C@@H](Cc1ccc(O)cc1)C(=O)N[C@@H](CCC(N)=O)C(=O)N[C@@H](CCCCN)C(=O)N1CCC[C@@H]1C(=O)N1CCC[C@H]1C(=O)N[C@@H](Cc1ccc(O)cc1)C(=O)N[C@@H](CCCNC(=N)N)C(=O)N[C@@H](Cc1c[nH]c3ccccc13)C(=O)N2 [Ex. 73] (cyclo(YRWCRG[dP]RR[2Nal]CYQK[dP]P); disulfide 4-11)
Hemolysis at 100 μM [1]: 0.3% | GI50 at 48 h [2]: 20000 nM | IC50 [3]: 8.8 nM

N=C(N)NCCC[C@@H]1NC(=O)[C@@H]2CSSC[C@H](NC(=O)[C@H](Cc3ccc4ccccc4c3)NC(=O)[C@H](CCCNC(=N)N)NC(=O)[C@H](CCCNC(=N)N)NC(=O)[C@H]3CCCN3C(=O)CNC1=O)C(=O)N[C@@H](Cc1ccc(O)cc1)C(=O)N[C@@H](CCC(N)=O)C(=O)N[C@@H](CCCCN)C(=O)N1CCC[C@@H]1C(=O)N1CCC[C@H]1C(=O)N[C@@H](Cc1ccc(O)cc1)C(=O)N[C@@H](CCCNC(=N)N)C(=O)N1CCC[C@H]1C(=O)N2 [Ex. 74] (cyclo(YRPCRG[dP]RR[2Nal]CYQK[dP]P); disulfide 4-11)
Hemolysis at 100 μM [1]: 0.4% | GI50 at 48 h [2]: 40000 nM | IC50 [3]: 19.5 nM

N=C(N)NCCC[C@@H]1NC(=O)[C@@H]2CSSC[C@H](NC(=O)[C@H](Cc3ccc4ccccc4c3)NC(=O)[C@H](CCCNC(=N)N)NC(=O)[C@H](Cc3ccc(F)cc3)NC(=O)[C@H]3CCCN3C(=O)CNC1=O)C(=O)N[C@@H](Cc1ccc(O)cc1)C(=O)N[C@@H](CCC(N)=O)C(=O)N[C@@H](CCCCN)C(=O)N1CCC[C@@H]1C(=O)N1CCC[C@H]1C(=O)N[C@@H](Cc1ccc(O)cc1)C(=O)N[C@@H](CCCNC(=N)N)C(=O)N[C@@H](CCCNC(N)=O)C(=O)N2 [Ex. 76] (cyclo(YR[Cit]CRG[dP][Phe(4-F)]R[2Nal]CYQK[dP]P); disulfide 4-11)
Hemolysis at 100 μM [1]: 0.1% | GI50 at 48 h [2]: > 100000 nM | IC50 [3]: 5.6 nM

N=C(N)NCCC[C@@H]1NC(=O)[C@@H]2CSSC[C@H](NC(=O)[C@H](Cc3ccc4ccccc4c3)NC(=O)[C@H](CCCNC(=N)N)NC(=O)[C@H](CCCNC(=N)N)NC(=O)[C@H]3CCCN3C(=O)CNC1=O)C(=O)N[C@@H](Cc1ccc(O)cc1)C(=O)N[C@@H](CC(N)=O)C(=O)N[C@@H](CCCCN)C(=O)N1CCC[C@@H]1C(=O)N1CCC[C@H]1C(=O)N[C@@H](Cc1ccc(O)cc1)C(=O)N[C@@H](CCCNC(=N)N)C(=O)N[C@@H](CCCNC(N)=O)C(=O)N2 [Ex. 77] (cyclo(YR[Cit]CRG[dP]RR[2Nal]CYNK[dP]P); disulfide 4-11)
Hemolysis at 100 μM [1]: 0.2% | GI50 at 48 h [2]: > 100000 nM | IC50 [3]: 7 nM

N=C(N)NCCC[C@@H]1NC(=O)[C@@H]2CSSC[C@H](NC(=O)[C@H](Cc3ccc4ccccc4c3)NC(=O)[C@H](CCCNC(=N)N)NC(=O)[C@H](CCCNC(=N)N)NC(=O)[C@H]3CCCN3C(=O)CNC1=O)C(=O)N[C@@H](Cc1ccc(O)cc1)C(=O)N[C@@H](CC(=O)O)C(=O)N[C@@H](CCCCN)C(=O)N1CCC[C@@H]1C(=O)N1CCC[C@H]1C(=O)N[C@@H](Cc1ccc(O)cc1)C(=O)N[C@@H](CCCNC(=N)N)C(=O)N[C@@H](CCCNC(N)=O)C(=O)N2 [Ex. 78] (cyclo(YR[Cit]CRG[dP]RR[2Nal]CYDK[dP]P); disulfide 4-11)
Hemolysis at 100 μM [1]: 0.1% | GI50 at 48 h [2]: 69000 nM | IC50 [3]: 11 nM

N=C(N)NCCC[C@@H]1NC(=O)[C@@H]2CSSC[C@H](NC(=O)[C@H](Cc3ccc4ccccc4c3)NC(=O)[C@H](CCCNC(=N)N)NC(=O)[C@H](CCCNC(=N)N)NC(=O)[C@H]3CCCN3C(=O)CNC1=O)C(=O)N[C@@H](Cc1ccc(O)cc1)C(=O)N[C@@H](CCCCN)C(=O)N[C@@H](CCCCN)C(=O)N1CCC[C@@H]1C(=O)N1CCC[C@H]1C(=O)N[C@@H](Cc1ccc(O)cc1)C(=O)N[C@@H](CCCNC(=N)N)C(=O)N[C@@H](CCCNC(N)=O)C(=O)N2 [Ex. 79] (cyclo(YR[Cit]CRG[dP]RR[2Nal]CYKK[dP]P); disulfide 4-11)
Hemolysis at 100 μM [1]: 0% | GI50 at 48 h [2]: 94000 nM | IC50 [3]: 2.4 nM

C[C@@H]1NC(=O)[C@H](Cc2ccc(O)cc2)NC(=O)[C@@H]2CSSC[C@H](NC(=O)[C@H](CCCNC(N)=O)NC(=O)[C@H](CCCNC(=N)N)NC(=O)[C@H](Cc3ccc(O)cc3)NC(=O)[C@@H]3CCCN3C(=O)[C@H]3CCCN3C(=O)[C@H](CCCCN)NC1=O)C(=O)N[C@@H](CCCNC(=N)N)C(=O)NCC(=O)N1CCC[C@@H]1C(=O)N[C@@H](CCCNC(=N)N)C(=O)N[C@@H](CCCNC(=N)N)C(=O)N[C@@H](Cc1ccc3ccccc3c1)C(=O)N2 [Ex. 80] (cyclo(YR[Cit]CRG[dP]RR[2Nal]CYAK[dP]P); disulfide 4-11)
Hemolysis at 100 μM [1]: 0.1% | GI50 at 48 h [2]: 44000 nM | IC50 [3]: 2.9 nM

N=C(N)NCCC[C@@H]1NC(=O)[C@@H]2CSSC[C@H](NC(=O)[C@H](Cc3ccc4ccccc4c3)NC(=O)[C@H](CCCNC(=N)N)NC(=O)[C@H](CCCNC(=N)N)NC(=O)[C@H]3CCCN3C(=O)CNC1=O)C(=O)N[C@@H](Cc1ccc(O)cc1)C(=O)N[C@@H](CO)C(=O)N[C@@H](CCCCN)C(=O)N1CCC[C@@H]1C(=O)N1CCC[C@H]1C(=O)N[C@@H](Cc1ccc(O)cc1)C(=O)N[C@@H](CCCNC(=N)N)C(=O)N[C@@H](CCCNC(N)=O)C(=O)N2 [Ex. 81] (cyclo(YR[Cit]CRG[dP]RR[2Nal]CYSK[dP]P); disulfide 4-11)
Hemolysis at 100 μM [1]: 0% | GI50 at 48 h [2]: 45000 nM | IC50 [3]: 4.9 nM

CC(C)C[C@@H]1NC(=O)[C@H](Cc2ccc(O)cc2)NC(=O)[C@@H]2CSSC[C@H](NC(=O)[C@H](CCCNC(N)=O)NC(=O)[C@H](CCCNC(=N)N)NC(=O)[C@H](Cc3ccc(O)cc3)NC(=O)[C@@H]3CCCN3C(=O)[C@H]3CCCN3C(=O)[C@H](CCCCN)NC1=O)C(=O)N[C@@H](CCCNC(=N)N)C(=O)NCC(=O)N1CCC[C@@H]1C(=O)N[C@@H](CCCNC(=N)N)C(=O)N[C@@H](CCCNC(=N)N)C(=O)N[C@@H](Cc1ccc3ccccc3c1)C(=O)N2 [Ex. 82] (cyclo(YR[Cit]CRG[dP]RR[2Nal]CYLK[dP]P); disulfide 4-11)
Hemolysis at 100 μM [1]: 0% | GI50 at 48 h [2]: 40000 nM | IC50 [3]: 4.8 nM

CSCC[C@@H]1NC(=O)[C@H](Cc2ccc(O)cc2)NC(=O)[C@@H]2CSSC[C@H](NC(=O)[C@H](CCCNC(N)=O)NC(=O)[C@H](CCCNC(=N)N)NC(=O)[C@H](Cc3ccc(O)cc3)NC(=O)[C@@H]3CCCN3C(=O)[C@H]3CCCN3C(=O)[C@H](CCCCN)NC1=O)C(=O)N[C@@H](CCCNC(=N)N)C(=O)NCC(=O)N1CCC[C@@H]1C(=O)N[C@@H](CCCNC(=N)N)C(=O)N[C@@H](CCCNC(=N)N)C(=O)N[C@@H](Cc1ccc3ccccc3c1)C(=O)N2 [Ex. 83] (cyclo(YR[Cit]CRG[dP]RR[2Nal]CYMK[dP]P); disulfide 4-11)
Hemolysis at 100 μM [1]: 0.1% | GI50 at 48 h [2]: 48000 nM | IC50 [3]: 3.7 nM

N=C(N)NCCC[C@@H]1NC(=O)[C@@H]2CSSC[C@H](NC(=O)[C@H](Cc3ccc4ccccc4c3)NC(=O)[C@H](CCCNC(=N)N)NC(=O)[C@H](CCCNC(=N)N)NC(=O)[C@H]3CCCN3C(=O)CNC1=O)C(=O)N[C@@H](Cc1ccc(O)cc1)C(=O)N[C@@H](CCC(N)=O)C(=O)N[C@@H](CC(N)=O)C(=O)N1CCC[C@@H]1C(=O)N1CCC[C@H]1C(=O)N[C@@H](Cc1ccc(O)cc1)C(=O)N[C@@H](CCCNC(=N)N)C(=O)N[C@@H](CCCNC(N)=O)C(=O)N2 [Ex. 84] (cyclo(YR[Cit]CRG[dP]RR[2Nal]CYQN[dP]P); disulfide 4-11)
Hemolysis at 100 μM [1]: 0% | GI50 at 48 h [2]: 62000 nM | IC50 [3]: 3.9 nM

C[C@@H]1NC(=O)[C@H](CCC(N)=O)NC(=O)[C@H](Cc2ccc(O)cc2)NC(=O)[C@@H]2CSSC[C@H](NC(=O)[C@H](CCCNC(N)=O)NC(=O)[C@H](CCCNC(=N)N)NC(=O)[C@H](Cc3ccc(O)cc3)NC(=O)[C@@H]3CCCN3C(=O)[C@H]3CCCN3C1=O)C(=O)N[C@@H](CCCNC(=N)N)C(=O)NCC(=O)N1CCC[C@@H]1C(=O)N[C@@H](CCCNC(=N)N)C(=O)N[C@@H](CCCNC(=N)N)C(=O)N[C@@H](Cc1ccc3ccccc3c1)C(=O)N2 [Ex. 86] (cyclo(YR[Cit]CRG[dP]RR[2Nal]CYQA[dP]P); disulfide 4-11)
Hemolysis at 100 μM [1]: 0% | GI50 at 48 h [2]: 62000 nM | IC50 [3]: 0.69 nM

N=C(N)NCCC[C@@H]1NC(=O)[C@@H]2CSSC[C@H](NC(=O)[C@H](Cc3ccc4ccccc4c3)NC(=O)[C@H](CCCNC(=N)N)NC(=O)[C@H](CCCNC(=N)N)NC(=O)[C@H]3CCCN3C(=O)CNC1=O)C(=O)N[C@@H](Cc1ccc(O)cc1)C(=O)N[C@@H](CCC(N)=O)C(=O)N[C@@H](CO)C(=O)N1CCC[C@@H]1C(=O)N1CCC[C@H]1C(=O)N[C@@H](Cc1ccc(O)cc1)C(=O)N[C@@H](CCCNC(=N)N)C(=O)N[C@@H](CCCNC(N)=O)C(=O)N2 [Ex. 87] (cyclo(YR[Cit]CRG[dP]RR[2Nal]CYQS[dP]P); disulfide 4-11)
Hemolysis at 100 μM [1]: 0% | GI50 at 48 h [2]: 64000 nM | IC50 [3]: 3.5 nM
